Reference: ChEMBL document CHEMBL4414648, “Novel Benzohydroxamate-Based Potent and Selective Histone Deacetylase 6 (HDAC6) Inhibitors Bearing a Pentaheterocyclic Scaffold: Design, Synthesis, and Biological Evaluation” (J Med Chem, 2019)
Calls of active or inactive are those of the source. The rule behind the calls is not given here.

How the values were obtained:
[1] = target: T1, Protein deacetylase HDAC6 (Homo sapiens, UniProt Q9UBN7); assay: biochemical
T1 sequence (Q9UBN7 whole entry): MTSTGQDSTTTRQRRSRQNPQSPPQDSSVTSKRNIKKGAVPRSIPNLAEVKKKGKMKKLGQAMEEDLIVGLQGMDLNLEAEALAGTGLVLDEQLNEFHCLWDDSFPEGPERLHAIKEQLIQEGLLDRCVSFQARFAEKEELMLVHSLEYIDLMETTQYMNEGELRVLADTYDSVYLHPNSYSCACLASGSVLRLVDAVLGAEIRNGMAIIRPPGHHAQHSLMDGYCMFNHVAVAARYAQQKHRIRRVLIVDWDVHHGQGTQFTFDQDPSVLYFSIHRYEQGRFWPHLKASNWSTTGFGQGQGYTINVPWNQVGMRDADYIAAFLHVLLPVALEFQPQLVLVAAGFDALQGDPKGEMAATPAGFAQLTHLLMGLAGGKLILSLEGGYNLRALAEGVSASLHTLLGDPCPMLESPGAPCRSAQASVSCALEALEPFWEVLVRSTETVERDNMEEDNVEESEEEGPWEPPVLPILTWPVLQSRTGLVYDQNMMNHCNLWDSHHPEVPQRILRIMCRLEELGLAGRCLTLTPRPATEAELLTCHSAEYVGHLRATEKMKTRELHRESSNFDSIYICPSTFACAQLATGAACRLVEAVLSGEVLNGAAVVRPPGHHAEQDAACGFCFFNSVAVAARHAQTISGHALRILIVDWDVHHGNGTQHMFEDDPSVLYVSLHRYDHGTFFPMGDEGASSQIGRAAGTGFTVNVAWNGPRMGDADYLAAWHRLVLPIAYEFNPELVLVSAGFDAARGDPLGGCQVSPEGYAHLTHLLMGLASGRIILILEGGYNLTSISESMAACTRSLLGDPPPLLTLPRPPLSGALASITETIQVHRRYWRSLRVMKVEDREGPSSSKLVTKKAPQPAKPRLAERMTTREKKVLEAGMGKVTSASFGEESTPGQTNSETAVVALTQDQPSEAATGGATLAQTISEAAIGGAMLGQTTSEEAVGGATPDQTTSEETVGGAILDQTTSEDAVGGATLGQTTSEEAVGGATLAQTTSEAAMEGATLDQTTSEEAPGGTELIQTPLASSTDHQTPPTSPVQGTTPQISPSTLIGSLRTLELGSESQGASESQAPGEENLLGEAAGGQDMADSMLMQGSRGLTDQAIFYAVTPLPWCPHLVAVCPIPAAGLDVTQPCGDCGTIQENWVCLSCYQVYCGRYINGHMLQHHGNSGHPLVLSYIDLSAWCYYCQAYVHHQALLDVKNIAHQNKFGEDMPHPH
Description: Inhibition of recombinant full length human N-terminal GST-tagged HDAC6 expressed in baculovirus infected sf9 insect cells pretreated with compound followed by Fluor de Lys deacetylase substrate addition by fluorescence method

[2] = target: Histone deacetylase 3/Nuclear receptor corepressor 2 (HDAC3/NCoR2) (Homo sapiens, UniProt O15379); assay: Inhibition of C-terminal His-tagged human HDAC3 (1 to 428 residues)/N-terminal GST tagged human NCOR2 (395 to 489) expressed in baculovirus infected sf9 insect cells pretreated with compound followed by Fluor de Lys deacetylase substrate addition by fluorescence method
Histone deacetylase 3/Nuclear receptor corepressor 2 (HDAC3/NCoR2), sequence (O15379 whole entry, the tested form may be a part): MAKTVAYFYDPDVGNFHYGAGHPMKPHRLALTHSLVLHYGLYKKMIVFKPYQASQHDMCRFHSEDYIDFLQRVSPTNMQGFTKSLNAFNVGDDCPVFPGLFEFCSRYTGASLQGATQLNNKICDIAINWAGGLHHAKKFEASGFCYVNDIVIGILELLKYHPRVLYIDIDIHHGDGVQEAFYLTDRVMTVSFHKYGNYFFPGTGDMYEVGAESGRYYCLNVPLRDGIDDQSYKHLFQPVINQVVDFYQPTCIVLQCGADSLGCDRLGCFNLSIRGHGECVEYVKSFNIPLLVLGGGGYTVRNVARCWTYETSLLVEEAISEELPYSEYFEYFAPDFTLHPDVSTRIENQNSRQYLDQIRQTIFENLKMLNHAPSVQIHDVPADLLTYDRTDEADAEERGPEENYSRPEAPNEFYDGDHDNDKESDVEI
Histone deacetylase 3/Nuclear receptor corepressor 2 (HDAC3/NCoR2), sequence (Q9Y618 whole entry, further chain, the tested form may be a part): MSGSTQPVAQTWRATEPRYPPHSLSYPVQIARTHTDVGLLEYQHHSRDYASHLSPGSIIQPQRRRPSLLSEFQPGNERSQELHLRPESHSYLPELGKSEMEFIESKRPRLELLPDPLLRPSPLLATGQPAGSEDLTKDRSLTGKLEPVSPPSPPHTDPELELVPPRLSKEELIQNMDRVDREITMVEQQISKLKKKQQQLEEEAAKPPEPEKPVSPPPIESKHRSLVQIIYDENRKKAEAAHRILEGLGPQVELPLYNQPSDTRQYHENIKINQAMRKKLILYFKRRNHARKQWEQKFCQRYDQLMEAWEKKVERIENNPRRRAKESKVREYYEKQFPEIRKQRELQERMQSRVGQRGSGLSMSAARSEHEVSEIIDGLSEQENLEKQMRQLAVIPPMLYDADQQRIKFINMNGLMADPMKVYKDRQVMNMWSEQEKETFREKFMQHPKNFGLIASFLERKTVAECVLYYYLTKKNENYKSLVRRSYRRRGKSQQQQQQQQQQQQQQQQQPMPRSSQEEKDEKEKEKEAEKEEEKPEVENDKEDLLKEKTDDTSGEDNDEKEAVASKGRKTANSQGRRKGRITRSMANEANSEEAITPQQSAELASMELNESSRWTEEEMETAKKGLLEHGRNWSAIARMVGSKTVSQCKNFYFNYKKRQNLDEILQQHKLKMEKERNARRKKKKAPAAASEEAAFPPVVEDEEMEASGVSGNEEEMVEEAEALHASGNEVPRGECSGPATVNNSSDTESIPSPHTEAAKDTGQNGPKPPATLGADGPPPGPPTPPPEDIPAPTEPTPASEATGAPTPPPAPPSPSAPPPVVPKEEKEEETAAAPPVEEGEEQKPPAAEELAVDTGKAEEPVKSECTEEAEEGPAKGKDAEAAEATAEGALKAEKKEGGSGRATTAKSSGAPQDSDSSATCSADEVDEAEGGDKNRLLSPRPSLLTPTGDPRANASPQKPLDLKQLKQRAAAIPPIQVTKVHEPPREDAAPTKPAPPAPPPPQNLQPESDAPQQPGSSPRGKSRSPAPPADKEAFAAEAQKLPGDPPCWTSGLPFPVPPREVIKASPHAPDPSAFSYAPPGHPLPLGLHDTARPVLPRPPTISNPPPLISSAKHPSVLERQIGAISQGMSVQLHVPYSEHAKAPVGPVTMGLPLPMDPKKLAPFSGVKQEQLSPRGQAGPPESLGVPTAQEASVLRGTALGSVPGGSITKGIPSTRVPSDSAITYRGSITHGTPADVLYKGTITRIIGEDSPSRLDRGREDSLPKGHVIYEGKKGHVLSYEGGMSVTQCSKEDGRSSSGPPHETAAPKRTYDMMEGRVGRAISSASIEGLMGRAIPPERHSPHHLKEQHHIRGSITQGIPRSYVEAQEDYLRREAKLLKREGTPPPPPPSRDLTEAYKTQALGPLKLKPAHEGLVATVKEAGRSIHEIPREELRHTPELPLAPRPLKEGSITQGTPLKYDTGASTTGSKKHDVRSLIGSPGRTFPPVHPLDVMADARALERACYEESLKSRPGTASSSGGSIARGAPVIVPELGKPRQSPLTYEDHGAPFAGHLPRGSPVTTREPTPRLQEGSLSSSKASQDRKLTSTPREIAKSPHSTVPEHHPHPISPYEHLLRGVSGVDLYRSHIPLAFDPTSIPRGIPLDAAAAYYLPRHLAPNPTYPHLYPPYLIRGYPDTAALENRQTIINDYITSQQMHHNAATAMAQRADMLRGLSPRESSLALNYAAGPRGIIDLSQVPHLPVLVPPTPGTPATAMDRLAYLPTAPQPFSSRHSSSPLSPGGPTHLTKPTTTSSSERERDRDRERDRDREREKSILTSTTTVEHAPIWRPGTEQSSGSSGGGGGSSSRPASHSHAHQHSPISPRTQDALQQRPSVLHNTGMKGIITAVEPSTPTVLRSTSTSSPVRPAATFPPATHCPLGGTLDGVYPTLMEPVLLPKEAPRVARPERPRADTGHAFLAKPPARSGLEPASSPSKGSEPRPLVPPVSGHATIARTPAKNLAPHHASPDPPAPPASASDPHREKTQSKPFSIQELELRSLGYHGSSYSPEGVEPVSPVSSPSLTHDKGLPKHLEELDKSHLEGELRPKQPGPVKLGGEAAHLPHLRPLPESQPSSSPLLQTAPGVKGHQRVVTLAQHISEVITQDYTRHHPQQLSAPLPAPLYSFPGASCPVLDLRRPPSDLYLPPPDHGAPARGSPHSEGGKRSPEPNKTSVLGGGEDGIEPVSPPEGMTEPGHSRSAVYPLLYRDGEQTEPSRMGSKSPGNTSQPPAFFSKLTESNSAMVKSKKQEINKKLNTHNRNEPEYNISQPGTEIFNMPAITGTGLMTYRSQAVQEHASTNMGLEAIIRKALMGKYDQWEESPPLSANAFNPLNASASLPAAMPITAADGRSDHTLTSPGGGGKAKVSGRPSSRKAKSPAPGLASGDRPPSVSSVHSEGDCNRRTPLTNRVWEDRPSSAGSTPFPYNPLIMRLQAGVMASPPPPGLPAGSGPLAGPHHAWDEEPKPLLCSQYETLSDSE

[3] = Toxicity in C57BL/6 mouse assessed as effect on platelet level at 10 mg/kg, ip administered for 5 days/week for two cycles and measured 60 mins post last dose by cell counter method relative to control; format: organism-based; settings: in vivo, 1 h
[4] = Toxicity in C57BL/6 mouse assessed as effect on platelet level at 50 mg/kg, ip administered for 5 days/week for two cycles and measured 60 mins post last dose by cell counter method relative to control; format: organism-based; settings: in vivo, 1 h
[5] = Cmax in CD-1 mouse at 5.2 mg/kg, po measured within 6 hrs by LC-MS/MS analysis; format: ADME, organism-based; set-up: dose 5.2 mg/kg, route oral; settings: in vivo
[6] = Toxicity in C57BL/6 mouse assessed as effect on postural changes up to 50 mg/kg, ip administered for 5 days/week for two cycles and measured daily starting from day 1; format: organism-based; settings: in vivo, 120 h
[7] = Toxicity in C57BL/6 mouse assessed as effect on grooming up to 50 mg/kg, ip administered for 5 days/week for two cycles; format: organism-based; settings: in vivo, 120 h
[8] = Stability in rat plasma assessed as parent compound remaining at 100 uM after 4 hrs by LC-MS/MS analysis; format: ADME, cell-free; settings: read-out: Stability
[9] = Toxicity in C57BL/6 mouse assessed as induction of piloerection up to 50 mg/kg, ip administered for 5 days/week for two cycles and measured daily starting from day 1; format: organism-based; settings: in vivo, 120 h
[10] = Toxicity in C57BL/6 mouse assessed as induction of leukopenia up to 50 mg/kg, ip administered for 5 days/week for two cycles; format: organism-based; settings: in vivo, 120 h
[11] = Toxicity in C57BL/6 mouse assessed as effect on stool up to 50 mg/kg, ip administered for 5 days/week for two cycles and measured daily starting from day 1; format: organism-based; settings: in vivo, 120 h
[12] = Toxicity in C57BL/6 mouse assessed as induction of diarrhea up to 50 mg/kg, ip administered for 5 days/week for two cycles and measured daily starting from day 1; format: organism-based; settings: in vivo, 120 h
[13] = tested on: 697; assay: Cytotoxicity against human 697 cells after 48 hrs by CellTiter 96 aqueous one solution assay; format: cell-based; settings: Homo sapiens, 697, 48 h
[14] = Stability in human liver S9 fraction assessed as parent compound remaining at 5 uM after 90 mins in presence of NADPH by LC-MS/MS analysis; format: ADME, subcellular; settings: read-out: Stability
[15] = Toxicity in C57BL/6 mouse assessed as inactivity/hyperactivity up to 50 mg/kg, ip administered for 5 days/week for two cycles and measured daily starting from day 1; format: organism-based; settings: in vivo, 120 h
[16] = tested on: Mus musculus; assay: In vivo inhibition of HDAC6 in C57BL/6 mouse assessed as increase in acetylated tubulin level in spleen cytosolic protein extract at 30 mg/kg, ip measured after 24 hrs by ELISA; format: functional, organism-based
[17] = Toxicity in C57BL/6 mouse assessed as effect on body weight at 50 mg/kg, ip administered for 5 days/week for two cycles and measured every other day relative to control; format: organism-based; settings: in vivo, 120 h
[18] = Apparent volume of distribution at steady state in CD-1 mouse at […], iv measured within 6 hrs by LC-MS/MS analysis; format: ADME, organism-based; settings: in vivo, read-out: Vdss(app)
[19] = Terminal half life in CD-1 mouse at […], iv measured within 6 hrs by LC-MS/MS analysis; format: ADME, organism-based; settings: in vivo, read-out: beta t1/2 (converted)
[20] = Tmax in CD-1 mouse at 5.2 mg/kg, po measured within 6 hrs by LC-MS/MS analysis; format: ADME, organism-based; settings: in vivo
[21] = Toxicity in C57BL/6 mouse assessed as effect on platelet level at 30 mg/kg, ip administered for 5 days/week for two cycles and measured 60 mins post last dose by cell counter method relative to control; format: organism-based; settings: in vivo, 1 h
[22] = Toxicity in C57BL/6 mouse assessed as effect on WBC level at 50 mg/kg, ip administered for 5 days/week for two cycles and measured 60 mins post last dose by beckman coulter counting method relative to control; format: organism-based; settings: in vivo, 1 h
[23] = Toxicity in C57BL/6 mouse assessed as effect on WBC level at 30 mg/kg, ip administered for 5 days/week for two cycles and measured 60 mins post last dose by beckman coulter counting method relative to control; format: organism-based; settings: in vivo, 1 h
[24] = Toxicity in C57BL/6 mouse assessed as effect on social behavior up to 50 mg/kg, ip administered for 5 days/week for two cycles; format: organism-based; settings: in vivo, 120 h
[25] = Oral bioavailability in CD-1 mouse at 5.2 mg/kg measured within 6 hrs by LC-MS/MS analysis; format: ADME, organism-based; settings: in vivo
[26] = Drug level in CD-1 mouse at […], iv measured after 5 mins by LC-MS/MS analysis; format: ADME, organism-based; settings: in vivo, read-out: Drug uptake
[27] = Toxicity in C57BL/6 mouse assessed as effect on WBC level at 10 mg/kg, ip administered for 5 days/week for two cycles and measured 60 mins post last dose by beckman coulter counting method relative to control; format: organism-based; settings: in vivo, 1 h
[28] = Stability in rat liver S9 fraction assessed as parent compound remaining at 5 uM after 90 mins in presence of NADPH by LC-MS/MS analysis; format: ADME, subcellular; settings: read-out: Stability
[29] = Oral bioavailability in dog; format: ADME, organism-based, Canis lupus familiaris; settings: in vivo
[30] = Oral bioavailability in rat; format: ADME, organism-based; settings: in vivo
[31] = Toxicity in C57BL/6 mouse assessed as effect on body weight at 10 mg/kg, ip administered for 5 days/week for two cycles and measured every other day relative to control; format: organism-based; settings: in vivo, 120 h
[32] = Toxicity in C57BL/6 mouse assessed as effect on body weight at 30 mg/kg, ip administered for 5 days/week for two cycles and measured every other day relative to control; format: organism-based; settings: in vivo, 120 h
[33] = Toxicity in C57BL/6 mouse assessed as effect on body temperature up to 50 mg/kg, ip administered for 5 days/week for two cycles and measured daily starting from day 1; format: organism-based; settings: in vivo, 120 h
[34] = Toxicity in ip dosed C57BL/6 mouse administered for 5 days/week for two cycles; format: organism-based; settings: in vivo
[35] = Drug level in C57BL/6 mouse plasma at 30 mg/kg, ip measured after 24 hrs; format: ADME, organism-based; settings: in vivo, BLD = below limit of detection
[36] = Total clearance in CD-1 mouse at […], iv measured within 6 hrs by LC-MS/MS analysis; format: ADME, organism-based; settings: in vivo
[37] = Toxicity in C57BL/6 mouse assessed as induction of kyphosis up to 50 mg/kg, ip administered for 5 days/week for two cycles and measured daily starting from day 1; format: organism-based; settings: in vivo, 120 h
[38] = Stability in human plasma assessed as parent compound remaining at 100 uM after 4 hrs by LC-MS/MS analysis; format: ADME, cell-free; settings: read-out: Stability
[39] = Toxicity in C57BL/6 mouse assessed as effect on spasms up to 50 mg/kg, ip administered for 5 days/week for two cycles and measured daily starting from day 1; format: organism-based; settings: in vivo, 120 h
[40] = tested on: PBMC; assay: Cytotoxicity against human PBMC cells after 72 hrs by CellTiter 96 aqueous one solution assay; format: cell-based
[41] = Total AUC in CD-1 mouse at 5.2 mg/kg, po measured within 6 hrs by LC-MS/MS analysis; format: ADME, organism-based; set-up: dose 5.2 mg/kg, route oral, time AUCmax; settings: in vivo

For `CC(=O)Nc1ccc(C(=O)NO)cc1`, the IC50 [1] was 270 nM and the IC50 [2] was 1670 nM.

`Cc1nnc(-c2ccc(C(=O)NO)cc2)[nH]1` gave an IC50 [1] of 353 nM and an IC50 [2] of 3560 nM.

`O=C(NO)c1ccc(Cn2nnnc2-c2cccs2)cc1` gave an Activity [3] of -5%, an Activity [4] of -1% and a Cmax [5] of 238 ng/mL. For the same molecule, the Activity [6] was “Non-Toxic”, the Activity [7] was “Non-Toxic” and the remaining at 4 h, 100 µM [8] was 62%. The Activity [9] was “Non-Toxic”, the Activity [10] was “Non-Toxic” and the Activity [11] was “Non-Toxic”. For the same molecule, the Activity [12] was “Non-Toxic”, the IC50 [13] was > 1000 nM and the remaining at […], 5 µM [14] was 100%. For the same molecule, the Activity [15] was “Non-Toxic”, the inhibition [16] was “Active” and the Activity [17] was 1.4%. It also gave a Vd at 6 h [18] of 4.8 L/kg, a half-life at 6 h [19] of 60 min and a Tmax [20] of 4.8 min. It also gave an Activity [21] of -7%, an Activity [22] of -15% and an Activity [23] of -11%. For the same molecule, the Activity [24] was “Non-Toxic”, the bioavailability [25] was 19% and the concentration at 5 min [26] was 685 ng/mL. The Activity [27] was -4%, the remaining at […], 5 µM [28] was 82% and the bioavailability [29] was 16%. The bioavailability [30] was 25%, the Activity [31] was 2.2% and the Activity [32] was 3.5%. The Activity [33] was “Non-Toxic”, the MTD at 120 h [34] was > 50 mg/kg and the Drug uptake [35] was “Bld”. For the same molecule, the clearance at 6 h [36] was 172 mL/min/kg, the Activity [37] was “Non-Toxic” and the remaining at 4 h, 100 µM [38] was 91%. The Activity [39] was “Non-Toxic”, the IC50 [40] was > 1000 nM and the AUC at 6 h [41] was 94 ng·h/mL.

`NCc1ccc(C(=O)NO)cc1` showed an IC50 [2] of 5000 nM.

In the case of `Nc1ccc(C(=O)NO)cc1`, the IC50 [1] is reported as 1390 nM and the IC50 [2] is reported as 18400 nM.
